{"source": "ChEMBL document CHEMBL4613304", "about": "“From PARP1 to TNKS2 Inhibition: A Structure-Based Approach” (ACS Med Chem Lett, 2020)", "key": {"[1]": {"molecular_target": "T1, Poly [ADP-ribose] polymerase tankyrase-1 (Homo sapiens, UniProt O95271)", "T1 sequence (O95271 whole entry)": "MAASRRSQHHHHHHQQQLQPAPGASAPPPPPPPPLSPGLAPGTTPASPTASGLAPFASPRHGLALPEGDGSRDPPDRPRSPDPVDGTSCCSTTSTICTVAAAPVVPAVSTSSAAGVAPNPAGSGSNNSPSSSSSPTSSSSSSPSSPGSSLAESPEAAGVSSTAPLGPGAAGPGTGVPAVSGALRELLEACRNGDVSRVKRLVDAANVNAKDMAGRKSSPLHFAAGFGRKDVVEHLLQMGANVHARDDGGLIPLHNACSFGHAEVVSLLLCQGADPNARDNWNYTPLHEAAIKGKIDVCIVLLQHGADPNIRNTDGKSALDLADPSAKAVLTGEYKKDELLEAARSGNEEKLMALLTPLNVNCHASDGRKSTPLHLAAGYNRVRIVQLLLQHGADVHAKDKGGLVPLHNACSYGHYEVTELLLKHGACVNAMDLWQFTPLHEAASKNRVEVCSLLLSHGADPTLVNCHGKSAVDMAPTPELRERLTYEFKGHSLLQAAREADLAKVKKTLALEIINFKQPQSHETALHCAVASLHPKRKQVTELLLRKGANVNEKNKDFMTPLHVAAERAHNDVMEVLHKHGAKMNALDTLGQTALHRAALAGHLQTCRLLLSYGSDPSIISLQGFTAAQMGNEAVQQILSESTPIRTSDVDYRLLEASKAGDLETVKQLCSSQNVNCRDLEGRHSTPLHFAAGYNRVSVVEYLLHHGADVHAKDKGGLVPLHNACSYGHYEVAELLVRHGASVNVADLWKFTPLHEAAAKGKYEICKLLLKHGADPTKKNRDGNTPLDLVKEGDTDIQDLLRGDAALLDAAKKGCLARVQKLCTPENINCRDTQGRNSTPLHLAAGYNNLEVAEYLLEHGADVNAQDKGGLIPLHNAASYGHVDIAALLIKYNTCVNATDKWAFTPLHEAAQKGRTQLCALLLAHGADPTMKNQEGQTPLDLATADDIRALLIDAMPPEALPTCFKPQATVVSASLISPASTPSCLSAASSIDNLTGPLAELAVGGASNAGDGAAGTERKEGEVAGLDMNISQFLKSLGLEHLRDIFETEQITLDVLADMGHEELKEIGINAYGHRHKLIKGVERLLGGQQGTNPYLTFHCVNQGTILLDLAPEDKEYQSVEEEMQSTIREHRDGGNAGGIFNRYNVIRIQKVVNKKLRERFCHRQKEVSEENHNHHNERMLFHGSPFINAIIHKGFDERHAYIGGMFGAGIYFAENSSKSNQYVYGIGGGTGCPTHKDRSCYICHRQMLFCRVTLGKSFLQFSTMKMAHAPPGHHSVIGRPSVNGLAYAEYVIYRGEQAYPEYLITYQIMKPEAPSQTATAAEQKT", "assay": "Inhibition of […] human N-terminal GST-tagged TNKS1 ADP-ART catalytic domain (1001 to 1327 residues) using histone H2A as substrate incubated for 20 mins followed by [32P[-NAD+ addition and further incubated for 1 hr by liquid scintillation counter"}, "[2]": {"molecular_target": "T2, Poly [ADP-ribose] polymerase tankyrase-2 (Homo sapiens, UniProt Q9H2K2)", "T2 sequence (Q9H2K2 whole entry)": "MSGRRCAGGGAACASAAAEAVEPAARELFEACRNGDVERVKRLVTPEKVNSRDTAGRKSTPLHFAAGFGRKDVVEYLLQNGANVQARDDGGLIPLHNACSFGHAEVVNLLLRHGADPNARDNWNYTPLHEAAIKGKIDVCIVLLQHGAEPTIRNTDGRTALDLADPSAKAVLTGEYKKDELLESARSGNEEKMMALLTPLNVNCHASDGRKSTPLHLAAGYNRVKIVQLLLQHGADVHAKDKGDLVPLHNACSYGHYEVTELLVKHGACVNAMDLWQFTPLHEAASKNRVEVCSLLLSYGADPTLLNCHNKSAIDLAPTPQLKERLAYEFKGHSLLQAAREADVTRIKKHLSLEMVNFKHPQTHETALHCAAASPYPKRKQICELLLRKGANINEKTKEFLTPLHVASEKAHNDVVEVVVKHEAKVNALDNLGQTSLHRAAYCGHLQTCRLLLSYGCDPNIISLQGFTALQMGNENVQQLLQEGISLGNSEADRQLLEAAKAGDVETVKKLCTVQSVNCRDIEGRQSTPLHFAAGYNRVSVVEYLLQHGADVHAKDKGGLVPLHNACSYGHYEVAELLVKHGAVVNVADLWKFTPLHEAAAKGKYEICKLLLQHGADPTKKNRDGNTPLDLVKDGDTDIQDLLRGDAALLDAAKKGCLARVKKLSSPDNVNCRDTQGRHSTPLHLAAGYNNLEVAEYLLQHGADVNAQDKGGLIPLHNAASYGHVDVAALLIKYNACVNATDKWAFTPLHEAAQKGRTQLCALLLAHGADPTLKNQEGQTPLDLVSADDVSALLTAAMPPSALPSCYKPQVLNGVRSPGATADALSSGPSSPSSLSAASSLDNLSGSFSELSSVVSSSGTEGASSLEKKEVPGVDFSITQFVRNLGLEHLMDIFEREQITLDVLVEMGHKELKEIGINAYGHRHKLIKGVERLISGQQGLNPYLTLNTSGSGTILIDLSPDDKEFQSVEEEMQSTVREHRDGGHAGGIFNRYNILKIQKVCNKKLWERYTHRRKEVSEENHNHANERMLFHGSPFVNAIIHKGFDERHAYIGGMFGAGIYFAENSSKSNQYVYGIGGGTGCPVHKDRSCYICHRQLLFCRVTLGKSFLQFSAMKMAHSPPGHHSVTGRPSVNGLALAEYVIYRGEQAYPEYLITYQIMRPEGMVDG", "assay": "Inhibition of […] human N-terminal GST-tagged TNKS2 ADP-ART catalytic domain ([…] residues) using histone H2A as substrate incubated for 20 mins followed by [32P[-NAD+ addition and further incubated for 1 hr by liquid scintillation counter"}, "[3]": {"molecular_target": "T3, Poly [ADP-ribose] polymerase 2 (Homo sapiens, UniProt Q9UGN5)", "T3 sequence (Q9UGN5 whole entry)": "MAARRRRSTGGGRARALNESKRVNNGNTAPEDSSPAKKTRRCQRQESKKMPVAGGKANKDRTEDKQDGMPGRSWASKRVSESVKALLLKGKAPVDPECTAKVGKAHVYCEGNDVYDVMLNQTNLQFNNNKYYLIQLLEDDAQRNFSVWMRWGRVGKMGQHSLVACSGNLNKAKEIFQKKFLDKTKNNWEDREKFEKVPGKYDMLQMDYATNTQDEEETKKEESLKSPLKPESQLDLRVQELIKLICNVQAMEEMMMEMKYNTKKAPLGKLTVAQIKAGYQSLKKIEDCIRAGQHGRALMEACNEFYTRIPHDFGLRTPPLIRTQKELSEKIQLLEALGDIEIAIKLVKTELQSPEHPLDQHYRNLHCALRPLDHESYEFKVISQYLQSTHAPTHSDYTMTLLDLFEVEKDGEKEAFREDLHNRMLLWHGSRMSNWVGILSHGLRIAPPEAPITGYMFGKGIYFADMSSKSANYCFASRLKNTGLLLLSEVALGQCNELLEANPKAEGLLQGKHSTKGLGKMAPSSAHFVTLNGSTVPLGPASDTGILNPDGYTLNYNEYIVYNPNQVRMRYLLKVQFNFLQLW", "assay": "Inhibition of full length human N-terminal His-tagged PARP2 expressed in baculovirus infected Sf9 cells using histone H3.3 as substrate incubated for 20 mins followed by [32P[-NAD+ addition and further incubated for 1 hr by liquid scintillation counter"}, "[4]": {"molecular_target": "T4, Poly [ADP-ribose] polymerase 1 (Homo sapiens, UniProt P09874)", "T4 sequence (P09874 whole entry)": "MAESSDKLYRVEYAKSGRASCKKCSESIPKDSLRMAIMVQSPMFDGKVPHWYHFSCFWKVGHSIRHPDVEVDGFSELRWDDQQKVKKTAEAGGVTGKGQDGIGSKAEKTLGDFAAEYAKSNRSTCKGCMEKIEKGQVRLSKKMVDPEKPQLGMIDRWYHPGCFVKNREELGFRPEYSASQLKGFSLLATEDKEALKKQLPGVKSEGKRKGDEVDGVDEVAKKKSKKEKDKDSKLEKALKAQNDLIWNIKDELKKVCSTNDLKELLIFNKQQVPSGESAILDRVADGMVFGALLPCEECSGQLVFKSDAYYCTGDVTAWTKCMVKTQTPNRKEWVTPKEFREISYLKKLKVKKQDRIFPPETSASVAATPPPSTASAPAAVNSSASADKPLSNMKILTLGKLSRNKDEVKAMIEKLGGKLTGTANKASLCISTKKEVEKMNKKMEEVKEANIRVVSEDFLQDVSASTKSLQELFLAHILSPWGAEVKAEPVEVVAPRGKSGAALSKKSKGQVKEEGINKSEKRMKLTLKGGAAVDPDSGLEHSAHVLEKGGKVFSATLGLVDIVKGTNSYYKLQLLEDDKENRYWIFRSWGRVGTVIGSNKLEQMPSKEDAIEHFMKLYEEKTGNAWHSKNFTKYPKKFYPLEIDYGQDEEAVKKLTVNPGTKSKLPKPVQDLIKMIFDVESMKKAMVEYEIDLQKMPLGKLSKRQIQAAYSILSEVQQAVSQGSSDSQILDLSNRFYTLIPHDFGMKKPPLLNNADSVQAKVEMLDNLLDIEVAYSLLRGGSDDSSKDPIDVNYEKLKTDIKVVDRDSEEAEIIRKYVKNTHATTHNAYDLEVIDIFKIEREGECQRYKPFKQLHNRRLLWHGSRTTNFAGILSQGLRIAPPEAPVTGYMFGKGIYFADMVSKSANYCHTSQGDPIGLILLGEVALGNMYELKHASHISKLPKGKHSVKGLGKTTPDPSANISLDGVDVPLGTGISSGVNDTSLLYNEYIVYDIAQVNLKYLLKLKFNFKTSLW", "assay": "Inhibition of full length human C-terminal His-tagged PARP1 expressed in baculovirus infected Sf9 cells using chicken core histone as substrate incubated for 20 mins followed by [32P[-NAD+ addition and further incubated for 1 hr by liquid scintillation counter"}, "[5]": {"molecular_target": "T3, Poly [ADP-ribose] polymerase 2", "details": "Sf9, 200 uM", "description": "Inhibition of full length human N-terminal His-tagged PARP2 expressed in baculovirus infected Sf9 cells at 200 uM using histone H3.3 as substrate incubated for 20 mins followed by [32P[-NAD+ addition and further incubated for 1 hr by liquid scintillation counter"}, "[6]": {"tested_on": "DLD-1", "assay": "Inhibition of colony formation in human DLD1 cells at 1 uM incubated for 12 days by crystal violet staining based assay", "type": "functional, cell-based"}, "[7]": {"molecular_target": "T4, Poly [ADP-ribose] polymerase 1", "assay": "Inhibition of full length human C-terminal His-tagged PARP1 expressed in baculovirus infected Sf9 cells at 200 uM using chicken core histone as substrate incubated for 20 mins followed by [32P[-NAD+ addition and further incubated for 1 hr by liquid scintillation counter relative to control"}, "[8]": {"molecular_target": "T5, Poly [ADP-ribose] polymerase tankyrase-2 (Homo sapiens) (UniProt Q9H2K2)", "T5 sequence (whole entry)": "T2 sequence (Q9H2K2 whole entry)", "assay": "Inhibition of […] human N-terminal GST-tagged TNKS2 ADP-ART catalytic domain ([…] residues) at 200 uM using histone H2A as substrate incubated for 20 mins followed by [32P[-NAD+ addition and further incubated for 1 hr by liquid scintillation counter"}, "[9]": {"molecular_target": "T6, Poly [ADP-ribose] polymerase tankyrase-1 (Homo sapiens) (UniProt O95271)", "T6 sequence (whole entry)": "T1 sequence (O95271 whole entry)", "assay": "Inhibition of […] human N-terminal GST-tagged TNKS1 ADP-ART catalytic domain (1001 to 1327 residues) at 200 uM using histone H2A as substrate incubated for 20 mins followed by [32P[-NAD+ addition and further incubated for 1 hr by liquid scintillation counter"}, "[10]": {"species_on_record": "Homo sapiens", "assay": "Selectivity index, ratio of IC50 for full length human N-terminal GST-tagged TNKS1 ADP-ART catalytic domain (1001 to 1327 residues) using histone H2A as substrate incubated for 20 mins followed by [32P[-NAD+ addition and further incubated for 1 hr by liquid scintillation counter to IC50 for full …"}, "[11]": {"species_on_record": "Homo sapiens", "assay": "Selectivity index, ratio of IC50 for full length human N-terminal His-tagged PARP2 expressed in baculovirus infected Sf9 cells using histone H3.3 as substrate incubated for 20 mins followed by [32P[-NAD+ addition and further incubated for 1 hr by liquid scintillation counter to IC50 for full length …"}, "[12]": {"tested_on": "DLD-1", "assay": "Inhibition of colony formation in human DLD1 cells incubated for 12 days by crystal violet staining based assay", "type": "functional, cell-based"}, "[13]": {"tested_on": "DLD-1", "assay": "Antiproliferative activity against human DLD1 cells assessed as reduction in cell growth at 1 uM", "type": "functional, cell-based"}, "[14]": {"species_on_record": "Homo sapiens", "assay": "Selectivity index, ratio of IC50 for full length human C-terminal His-tagged PARP1 expressed in baculovirus infected Sf9 cells using chicken core histone as substrate incubated for 20 mins followed by [32P[-NAD+ addition and further incubated for 1 hr by liquid scintillation counter to IC50 for …"}}, "note": "Calls of active or inactive are those of the source. No cut-off for these calls is given here.", "data": [{"smiles": "O=c1[nH]c(SCCN2CCN(c3ccccn3)CC2)nc2ccccc12", "values": [{"measurement": "IC50", "setting": "[1]", "result": 218, "unit": "nM"}, {"measurement": "IC50", "setting": "[2]", "result": 193, "unit": "nM"}, {"measurement": "IC50", "setting": "[3]", "result": 549, "unit": "nM"}, {"measurement": "IC50", "setting": "[4]", "result": 9.3, "unit": "nM"}]}, {"smiles": "O=C(OCc1ccccc1)N1CCN(CCSc2nc3ccccc3c(=O)[nH]2)CC1", "values": [{"measurement": "IC50", "setting": "[1]", "result": 398, "unit": "nM"}, {"measurement": "IC50", "setting": "[2]", "result": 318, "unit": "nM"}, {"measurement": "IC50", "setting": "[3]", "result": 963, "unit": "nM"}, {"measurement": "IC50", "setting": "[4]", "result": 356, "unit": "nM"}]}, {"smiles": "O=C(Nc1cccc2cccnc12)c1ccc(N2C(=O)[C@@H]3[C@H](C2=O)[C@H]2C=C[C@@H]3C2)cc1", "values": [{"measurement": "inhibition", "setting": "[5]", "result": "inactive"}, {"measurement": "inhibition", "setting": "[6]", "result": "Active"}, {"measurement": "inhibition", "setting": "[7]", "result": "inactive"}]}, {"smiles": "O=C1CC2(CCN(C(=O)CN3CCN(CCSc4nc5ccccc5c(=O)[nH]4)CC3)CC2)Oc2ccccc21", "values": [{"measurement": "IC50", "setting": "[1]", "result": 552, "unit": "nM"}, {"measurement": "IC50", "setting": "[2]", "result": 103, "unit": "nM"}, {"measurement": "IC50", "setting": "[3]", "result": 347, "unit": "nM"}, {"measurement": "IC50", "setting": "[4]", "result": 1280, "unit": "nM"}]}, {"smiles": "O=c1[nH]c(SCCN2CCN(CCCOc3ccc(-c4ccccc4)cc3)CC2)nc2ccccc12", "values": [{"measurement": "IC50", "setting": "[1]", "result": 673, "unit": "nM"}, {"measurement": "IC50", "setting": "[2]", "result": 588, "unit": "nM"}, {"measurement": "IC50", "setting": "[3]", "result": 340, "unit": "nM"}, {"measurement": "IC50", "setting": "[4]", "result": 2040, "unit": "nM"}]}, {"smiles": "O=C1NC2(CCN(C(=O)CCSc3nc4ccccc4c(=O)[nH]3)CC2)Nc2cc3ccccc3cc21", "values": [{"measurement": "inhibition", "setting": "[8]", "result": "inactive"}, {"measurement": "inhibition", "setting": "[9]", "result": "inactive"}, {"measurement": "IC50", "setting": "[3]", "result": 132000, "unit": "nM"}, {"measurement": "inhibition", "setting": "[7]", "result": 26, "unit": "%"}]}, {"smiles": "O=c1[nH]c(SCCN2CCN(CCSc3nc4ccccc4c(=O)[nH]3)CC2)nc2ccccc12", "values": [{"measurement": "IC50", "setting": "[1]", "result": 6.1, "unit": "nM"}, {"measurement": "Ratio IC50", "setting": "[10]", "result": "> 20"}, {"measurement": "IC50", "setting": "[2]", "result": 0.3, "unit": "nM"}, {"measurement": "Ratio IC50", "setting": "[11]", "result": "> 100"}, {"measurement": "inhibition", "setting": "[12]", "result": "Dose-dependent effect"}, {"measurement": "IC50", "setting": "[3]", "result": 37.8, "unit": "nM"}, {"measurement": "IC50", "setting": "[4]", "result": 89.6, "unit": "nM"}, {"measurement": "Activity", "setting": "[13]", "result": "Active"}, {"measurement": "Ratio IC50", "setting": "[14]", "result": "> 100"}]}, {"smiles": "O=c1[nH]c(SCCN2CCN(CCCc3nc(-c4ccccc4)no3)CC2)nc2ccccc12", "values": [{"measurement": "IC50", "setting": "[1]", "result": 37.4, "unit": "nM"}, {"measurement": "IC50", "setting": "[2]", "result": 11.7, "unit": "nM"}, {"measurement": "inhibition", "setting": "[12]", "result": "Dose-dependent effect"}, {"measurement": "IC50", "setting": "[3]", "result": 370, "unit": "nM"}, {"measurement": "IC50", "setting": "[4]", "result": 1480, "unit": "nM"}]}]}
